The IC50 is the concentration needed to halve the response being measured. In general, IC90 refers to the concentration needed for an effect of 90%.

Structures are written as SMILES.

This experiment has as its system Plasmodium berghei. Put plainly: Luciferase/luciferin-expressing antifolate-resistant parasites were used to infect a culture of HepG2 cells that were pre-incubated with compounds. Infected hepatocytes emit light due to the luciferase reaction. Assay results are presented as the percent inhibition of light emission compared to control. […]. The note with it: sporozoite; for IC90: read-out: LUCIFERASE INFECTION ASSAY - IC90. The experiment is classed as functional.

Consider `c1ccc(-c2cc3nc(NCC4CC4)nc(NCC4CCCCC4)c3s2)cc1`, for which the IC90 came out at 3.98 µM. Moreover, for the setting “HEPG2TOX_HILL_SLOPE 9.69, HEPG2TOX_R_SQUARED 0.573, PBLUC_HILL_SLOPE 14.3, PBLUC_R_SQUARED 0.374, read-out: LUCIFERASE INFECTION ASSAY - IC50”, the IC50 stood at 3.41 µM.
With `Cc1cc(=O)n2nc(-c3ccc(C(C)(C)C)cc3)cc2[nH]1`, the IC90 turned out to be 2.42 µM. For the same compound, where the note is “HEPG2TOX_HILL_SLOPE 9.72, HEPG2TOX_R_SQUARED 0.89, PBLUC_HILL_SLOPE 2.59, PBLUC_R_SQUARED 0.666, read-out: LUCIFERASE INFECTION ASSAY - IC50”, the IC50 came out at 1.04 µM.
On to `C[S+]([O-])c1ccc(C(F)(F)F)cc1[N+](=O)[O-]` (stereo not drawn), for which the IC90 was > 13 µM. Moreover, the IC50 (HEPG2TOX_HILL_SLOPE 9.53, HEPG2TOX_R_SQUARED 0.815, PBLUC_HILL_SLOPE 1.65, PBLUC_R_SQUARED 0.298, read-out: LUCIFERASE INFECTION ASSAY - IC50) amounted to 11.1 µM.
`Cc1cc(NC(=O)C(C)n2nc(-c3cccs3)c3ccccc3c2=O)no1` (stereo not drawn): the IC90 is > 10 µM. Where the note is “HEPG2TOX_HILL_SLOPE 9.69, HEPG2TOX_R_SQUARED 0.542, read-out: LUCIFERASE INFECTION ASSAY - IC50”, the IC50 is > 10 µM.
As to `Cc1cn2nc(N(C)Cc3ccc(N(C)C)cc3)sc2n1`, the IC90 was > 10 µM. Besides, under “HEPG2TOX_HILL_SLOPE 9.75, HEPG2TOX_R_SQUARED 0.561, PBLUC_HILL_SLOPE 7.25, PBLUC_R_SQUARED 0.0375, read-out: LUCIFERASE INFECTION ASSAY - IC50”, the IC50 came to 7.97 µM.
For `O=C(Nc1nc2ccccc2[nH]1)c1ccc(Cl)c(S(=O)(=O)N2CCc3ccccc32)c1`, the IC90 was > 10 µM. For the same compound, the IC50 (HEPG2TOX_HILL_SLOPE 9.78, HEPG2TOX_R_SQUARED 0.833, PBLUC_HILL_SLOPE 14, PBLUC_R_SQUARED 0.17, read-out: LUCIFERASE INFECTION ASSAY - IC50) was found to be 8.7 µM.
Regarding `COc1ccccc1C(=O)c1cnc(Nc2cccc(-c3ccccc3)c2)[nH]1`, the IC90 is > 8.93 µM. Moreover, for the setting “HEPG2TOX_HILL_SLOPE 9.5, HEPG2TOX_R_SQUARED 0.78, PBLUC_HILL_SLOPE 12, PBLUC_R_SQUARED 0.218, read-out: LUCIFERASE INFECTION ASSAY - IC50”, the IC50 stood at 8.03 µM.
Turning to `NC(Cc1ccc(F)cc1)c1csc(NC(=O)Nc2ccc(OC(F)(F)F)cc2)n1` (stereo not drawn), the 90% effect concentration (IC90) is 5.69 µM. Also, the IC50 (HEPG2TOX_HILL_SLOPE 9.82, HEPG2TOX_R_SQUARED 0.883, PBLUC_HILL_SLOPE 24.7, PBLUC_R_SQUARED 0.388, read-out: LUCIFERASE INFECTION ASSAY - IC50) was 5.2 µM.
With `COc1cc(-c2ccc3ncc(-c4cccc(Cl)c4)n3n2)cc(OC)c1OC`, the IC90 was determined as 5.69 µM. Also, under “HEPG2TOX_HILL_SLOPE 9.46, HEPG2TOX_R_SQUARED 0.786, PBLUC_HILL_SLOPE 7.92, PBLUC_R_SQUARED 0.391, read-out: LUCIFERASE INFECTION ASSAY - IC50”, the IC50 amounted to 4.31 µM.
With `O=C(Nc1ccc(C(F)(F)F)cc1)Nc1sccc1Cl`, the IC90 worked out at 7.98 µM. Besides, the IC50 (HEPG2TOX_HILL_SLOPE 9.59, HEPG2TOX_R_SQUARED 0.7, PBLUC_HILL_SLOPE 5.14, PBLUC_R_SQUARED 0.452, read-out: LUCIFERASE INFECTION ASSAY - IC50) was determined as 5.21 µM.
With `Cc1cc(=O)nc(N/N=C/c2c(C)nn(-c3cccc(C(F)(F)F)c3)c2Cl)[nH]1`, the IC90 was 8.03 µM. Besides, under “HEPG2TOX_HILL_SLOPE 9.49, HEPG2TOX_R_SQUARED 0.952, PBLUC_HILL_SLOPE 2.17, PBLUC_R_SQUARED 0.422, read-out: LUCIFERASE INFECTION ASSAY - IC50”, the IC50 was found to be 2.91 µM.
Consider `CCN1C/C(=C/c2cc(Cl)c(OC(C)C)c(OC)c2)C(=O)/C(=C/c2cc(Cl)c(OC(C)C)c(OC)c2)C1`, for which the IC90 worked out at 3.46 µM. The IC50 (HEPG2TOX_HILL_SLOPE 9.62, 4.07, HEPG2TOX_R_SQUARED 0.967, 0.574, PBLUC_HILL_SLOPE 16.5, 9.41, PBLUC_R_SQUARED 0.287, 0.470, read-out: LUCIFERASE INFECTION ASSAY - IC50) came to 2.85 µM.
On to `Oc1c(Cl)cc(Cl)cc1/C=N/NC(=S)NC1CCCC1`, for which the IC90 is 3.83 µM. Further, the IC50 (HEPG2TOX_HILL_SLOPE 9.72, HEPG2TOX_R_SQUARED 0.599, PBLUC_HILL_SLOPE 20.7, PBLUC_R_SQUARED 0.654, read-out: LUCIFERASE INFECTION ASSAY - IC50) was found to be 3.45 µM.
With `O=C(/C=C/c1ccc(Cl)c([N+](=O)[O-])c1)c1ccc(NC2=NCCCS2)cc1`, the IC90 came to 9.95 µM. Besides, the IC50 (HEPG2TOX_HILL_SLOPE 9.82, HEPG2TOX_R_SQUARED 0.995, PBLUC_HILL_SLOPE 5.88, PBLUC_R_SQUARED 0.401, read-out: LUCIFERASE INFECTION ASSAY - IC50) was determined as 6.85 µM.
In the case of `CC(C)NC(=O)/C(C#N)=C/c1cccc(Cl)c1Cl`, the IC90 is > 10 µM. Also, the IC50 (HEPG2TOX_HILL_SLOPE 9.7, HEPG2TOX_R_SQUARED 0.0223, read-out: LUCIFERASE INFECTION ASSAY - IC50) is > 10 µM.
In the case of `O=C(Nc1nonc1-c1ccc(F)cc1)c1ccc(Br)cc1`, the IC90 is 3.92 µM. The IC50 (HEPG2TOX_HILL_SLOPE 9.79, HEPG2TOX_R_SQUARED 0.939, PBLUC_HILL_SLOPE 11.2, PBLUC_R_SQUARED 0.415, read-out: LUCIFERASE INFECTION ASSAY - IC50) is 3.22 µM.
As for `FC(F)(F)c1cc(/C=N/Nc2c(Cl)cc(C(F)(F)F)cc2Cl)cc(C(F)(F)F)c1`, the IC90 stood at 6.93 µM. The IC50 (HEPG2TOX_HILL_SLOPE 9.76, HEPG2TOX_R_SQUARED 0.862, PBLUC_HILL_SLOPE 9.4, PBLUC_R_SQUARED 0.388, read-out: LUCIFERASE INFECTION ASSAY - IC50) came out at 5.49 µM.
For the compound `FC(F)(F)Oc1ccc(-c2ccc(OCc3ccccn3)nc2)cc1`, the IC90 was > 9.53 µM. In addition, the IC50 (HEPG2TOX_HILL_SLOPE 9.63, HEPG2TOX_R_SQUARED 0.944, read-out: LUCIFERASE INFECTION ASSAY - IC50) was > 9.53 µM.
As for `Oc1ccc(Br)cc1/C=N/NC(=S)NC1CC2CCC1C2` (stereo not drawn), the IC90 was determined as 8.93 µM. Further, the IC50 (HEPG2TOX_HILL_SLOPE 9.58, HEPG2TOX_R_SQUARED 0.779, PBLUC_HILL_SLOPE 13.3, PBLUC_R_SQUARED 0.143, read-out: LUCIFERASE INFECTION ASSAY - IC50) is 7.57 µM.
Take `Cc1cc(C(C)(C)C)cc(C)c1CCNC(=O)C1CCN(c2cnccn2)CC1`: the IC90 was > 10 µM. In addition, under “HEPG2TOX_HILL_SLOPE 9.49, HEPG2TOX_R_SQUARED 0.929, PBLUC_HILL_SLOPE 9.04, PBLUC_R_SQUARED 0.464, read-out: LUCIFERASE INFECTION ASSAY - IC50”, the IC50 is 8.99 µM.
`Cn1c(=O)c2cc3cc(Cl)ccc3nc2c2c(=O)n(-c3ccccc3)c(=O)n(-c3ccccc3)c21`: the IC90 is > 6.86 µM. In addition, the IC50 (HEPG2TOX_HILL_SLOPE 9.44, HEPG2TOX_R_SQUARED 0.957, PBLUC_HILL_SLOPE 32.7, PBLUC_R_SQUARED 0.0582, read-out: LUCIFERASE INFECTION ASSAY - IC50) amounted to 6.86 µM.
For the compound `CC(c1ccc(-n2cncn2)cc1)N(C)c1ncnc2ccsc12` (stereo not drawn), the IC90 was > 10 µM. For the same compound, where the note is “HEPG2TOX_HILL_SLOPE 9.54, HEPG2TOX_R_SQUARED 0.431, PBLUC_HILL_SLOPE 1.32, 1.56, PBLUC_R_SQUARED 0.780, 0.216, read-out: LUCIFERASE INFECTION ASSAY - IC50”, the IC50 was 3.71 µM.
For the compound `Oc1cccc(-c2ccnc3n[nH]c(-c4ccc5c(c4)OCO5)c23)c1`, the IC90 came out at 6.14 µM. The IC50 (HEPG2TOX_HILL_SLOPE 9.48, HEPG2TOX_R_SQUARED 0.645, PBLUC_HILL_SLOPE 1.2, PBLUC_R_SQUARED 0.596, read-out: LUCIFERASE INFECTION ASSAY - IC50) came to 0.984 µM.
On to `CCCCc1c(O)cc2n(c1=O)-c1ccc(Cl)cc1C2(C)C`, for which the IC90 was > 10.4 µM. In addition, the IC50 (HEPG2TOX_HILL_SLOPE 9.65, HEPG2TOX_R_SQUARED 0.788, PBLUC_HILL_SLOPE 4.5, PBLUC_R_SQUARED 0.532, read-out: LUCIFERASE INFECTION ASSAY - IC50) is 7.82 µM.
Regarding `COc1ccc(-c2cnc3ccc(NCc4ccc(C)cc4C)nn23)cn1`, the IC90 came to 9.01 µM. In addition, under “HEPG2TOX_HILL_SLOPE 9.76, HEPG2TOX_R_SQUARED 0.857, PBLUC_HILL_SLOPE 10.1, PBLUC_R_SQUARED 0.466, read-out: LUCIFERASE INFECTION ASSAY - IC50”, the IC50 was found to be 7.25 µM.
In the case of `N#C/C(=C(/Oc1ccc(Cl)cc1Cl)C(F)(F)F)c1ccccc1`, the IC90 is > 9.21 µM. Besides, the IC50 (HEPG2TOX_HILL_SLOPE 9.57, HEPG2TOX_R_SQUARED 0.894, PBLUC_HILL_SLOPE 12.7, PBLUC_R_SQUARED 0.611, read-out: LUCIFERASE INFECTION ASSAY - IC50) was found to be 8.77 µM.
Regarding `COC(=O)c1occc1/C=C/C(=O)C12CC3CC(CC(C3)C1)C2`, the IC90 worked out at 7.04 µM. The IC50 (HEPG2TOX_HILL_SLOPE 9.64, HEPG2TOX_R_SQUARED 0.941, PBLUC_HILL_SLOPE 4.67, PBLUC_R_SQUARED 0.564, read-out: LUCIFERASE INFECTION ASSAY - IC50) was 4.4 µM.
Consider `N#Cc1ccc(C#CCOC(=O)c2ccc(Cl)cc2)cc1`, for which the IC90 is > 11.2 µM. Besides, under “HEPG2TOX_HILL_SLOPE 9.79, HEPG2TOX_R_SQUARED 0.928, PBLUC_HILL_SLOPE 1.7, PBLUC_R_SQUARED 0.764, read-out: LUCIFERASE INFECTION ASSAY - IC50”, the IC50 amounted to 3.56 µM.
As to `O=C(NCCOc1cccc(Oc2ccccc2)c1)c1cccs1`, the IC90 was > 9.72 µM. Where the note is “HEPG2TOX_HILL_SLOPE 9.69, HEPG2TOX_R_SQUARED 0.418, PBLUC_HILL_SLOPE 2.28, PBLUC_R_SQUARED 0.595, read-out: LUCIFERASE INFECTION ASSAY - IC50”, the IC50 was found to be 4.13 µM.

Values taken from ChEMBL document CHEMBL4483862, “Open-source discovery of chemical leads for next-generation chemoprotective antimalarials” (2018).
